Measured values published in patent US20260091136A1, “USING ENHO GENE THERAPY TO TREAT CARDIOMETABOLIC DISEASE” (University of Pittsburgh-of the Commonwealth System of …, priority 2023, published 2026).
“Also recorded” adds a separate entry of the source.

Key:
HFpEF mice [1] = assay: Cardiac function testing by ultrasonography in HFpEF mice (Example 1); type: in vivo; details: for diastolic function: HFpEF mice, daily Adropin treatment
Procedure: (§1) Administration of Recombinant Adropin. Mice received low-fat chow or HFpEF diet for 10 weeks. For the following 4 weeks, the mice were maintained on respective diets and received daily injections of recombinant Adropin. Body weight was measured every day during the four weeks of treatment.
Cardiac function testing. After 2 weeks, mice were tested using ultrasonography to measure cardiac function and morphology. To determine systolic function and morphology, mice were tested using M-mode echocardiography to measure left ventricle (LV) mass, volume, wall thickness, and contraction (LV ejection fraction and fractional shortening). To determine diastolic function, mice were tested using Doppler to measure LV relaxation and filling (E/A ratio, E/e′ ratio, and isovolumetric relaxation time [IVRT]).

HFpEF mice [2] = assay: Heart, lung and liver mass after four weeks of Adropin in HFpEF mice (Example 1); type: in vivo
Procedure: as §1

[3] = In vivo stability of recombinant Adropin (clearance from circulation); details: within 1 hour
HFpEF mice [4] = assay: Echocardiography, cohort 2; type: in vivo, C57BL/6J mice; details: HFpEF mice treated with Adropin 450 nmol/kg daily i.p.
Source text: Twelve week-old C57BL/6J wild-type male mice were exposed to normal chow, or a combination of 60% high fat diet plus N^ω-nitro-L-arginine methyl ester (L-NAME: 0.5 g/L in drinking water) to induce HFpEF. After 8 weeks of diet, mice were randomly assigned to a control HFpEF group, or to a group receiving daily intraperitoneal injections of recombinant Adropin (450 nmol/kg) for the remaining weeks of the study. All animal experiments were approved by the University of Pittsburgh Institutional Animal Care and Use Committee. […] These changes occurred in the absence of systolic dysfunction (FIG. 6). Each marker of cardiac dysfunction was absent in HFpEF mice treated with Adropin (FIG. 6).
Animal Care and Use. Male C57BL/6J 8-week-old mice were obtained from the Jackson Laboratory and maintained on chow for 4 weeks to acclimate to their new environment. […]
Echocardiography. Mice were anesthetized using isofluorane (1.5%-2.0% v/v by inhalation) and monitored for cardiac functional parameters in the supine position using a Visual Sonics Vevo 3100. […] The left atrial area was quantified in the apical 4-chamber view by tracing the border of the left atrium. Markers of systolic and diastolic function were calculated using standard echocardiography equations. […] Image analysis was performed independently by a blinded sonographer and all parameters were measured at least 3 times, and averages are presented.

[5] = system: hearts from control HFpEF and Adropin treated HFpEF mice; assay: Bulk RNA sequencing of hearts, HFpEF vs HFpEF+Adropin; type: in vivo, C57BL/6J mice; details: heart bulk RNA-seq
Source text: (§2) Animal Care and Use. Male C57BL/6J 8-week-old mice were obtained from the Jackson Laboratory and maintained on chow for 4 weeks to acclimate to their new environment. Animals were housed in the University of Pittsburgh animal facility under standard conditions with ad libitum access to water and food and maintained on a constant 12-hour light/dark cycle. At 12 weeks of age, the mice were exposed to normal chow (Chow; 60% carbohydrate, 26% protein, 14% fat), or a combination of high-fat diet (HFD; 20% carbohydrate, 20% protein, 60% fat) plus No-nitro-L-arginine methyl ester (L-NAME: 0.5 g/L) supplemented in their drinking water after adjusting the pH to 7.4 with 1N NaOH to induce HFpEF [10]. For cohort 1, the mice were subject to the HFpEF diet for 15 weeks. For cohort 2, after 8 weeks of diet, mice were randomly assigned to a control or treatment group receiving daily intraperitoneal injections of either vehicle or recombinant adropin at 450 nmol/kg animal weight prepared in PBS with 0.1% BSA for the remaining 5 weeks of the study. L-NAME supplemented drinking water was changed weekly and adropin was made fresh and sterile filtered before each use.
Transcriptomics. Total RNA was isolated from myocardial LV and hepatic tissue using the RNeasy Plus Mini Kit. Approximately 2 μg RNA was used for bulk RNA sequencing performed by Azenta/GENEWIZ based on company recommendations to identify differential gene expression patterns between the experimental groups.

CPT1b = assay: O-GlcNAc co-immunoprecipitation from heart: CPT1b; type: in vivo, C57BL/6J mice; details: Adropin-treated HFpEF mice, relative to levels in chow mice / HFpEF
Source text: as §2
Co-Immunoprecipitation. […] Images were obtained using LiCor Odyssey CLx System and protein densitometry was measured using the LiCor Image Studio Lite Ver. […]

diabetic mice = details: cited from earlier work
[6] = system: hearts isolated from chow-fed mice; details: cited from earlier work
[7] = 2 weeks of Adropin, vs HFpEF mice without treatment
[8] = 2 weeks of Adropin, vs HFpEF mice without treatment, p-value <0.05

Substance: Adropin: recombinant Adropin peptide hormone encoded by the ENHO gene; full-length (SEQ ID NO: 1) or cleaved product of amino acids 34-76 (SEQ ID NO: 2) (CHSRSADVDSLSESSPNSSPGPCPEKAPPPQKPSHEGSYLLQP)
- average cardiac output (HFpEF mice [1]; [7]): greater
- average ejection fraction (HFpEF mice [1]; [7]): greater
- isovolumetric relaxation time (IVRT) (HFpEF mice [1]; [8]): significantly lower
- left ventricle myocardial performance index (LV MPI) (HFpEF mice [1]; [8]): significantly lower
- diastolic function (HFpEF mice [1]): improves
- diastolic function (HFpEF mice [1]; listed as Recombinant Adropin): significant increase
- diastolic function (HFpEF mice [1]; listed as recombinant Adropin): improved
- average LV mass (HFpEF mice [1]; following 2 weeks of Adropin, vs HFpEF mice without treatment): lower
- lung or liver mass (HFpEF mice [2]; after 4 weeks): no differences were observed
- average LV mass (FIG. 3A; cardiac hypertrophy) (HFpEF mice [2]; following 4 weeks of Adropin, vs HFpEF mice without treatment): lower; also recorded: reduces
- peptide cleared from circulation [3]: 96%
- markers of cardiac (diastolic) dysfunction: increased heart/LV mass, decreased cardiac output, increased IVRT, increased LV MPI (HFpEF mice [4]): absent; also recorded: improved
- markers of cardiac (diastolic) dysfunction: increased heart/LV mass, decreased cardiac output, increased IVRT, increased LV MPI (HFpEF mice [4]; listed as adropin): absent; also recorded: attenuates
- expression of extracellular matrix remodeling/fibrosis (e.g. Comp, Col12a1) and natriuretic peptide (e.g. Nppa) genes ([5]; Adropin-treated vs HFpEF mice): decreased expression; also recorded: downregulated
- decrease in extracellular matrix remodeling transcripts (Col1a1, Col3a1, Col5a1, Mmp2) ([5]; adropin-treated vs vehicle-treated HFpEF mice): > 2 fold
- metabolic genes ([5]; between HFpEF and Adropin groups): no widespread changes
- CPT1b O-GlcNAcylation (CPT1b): restored; also recorded: reduced
- vascular stiffness (diabetic mice; diet-induced obesity, previous study [9]): reduced
- hepatocellular injury in NAFLD/MAFLD (diabetic mice; exogenous adropin treatment, recent studies [34]): alleviates
- physical activity (diabetic mice; previous studies [6-8]): improved
- hepatic steatosis and injury (diabetic mice; previous studies [7, 34]): attenuated
- glucose oxidation in the hearts of diabetic mice (diabetic mice; previous work from our group): restores
- liver glucose production in diabetic mice (diabetic mice; previous work from our group): decreases
- cardiac contractility ([6]; acute adropin treatment, hearts isolated from chow-fed mice [32]): increase
- effect on cardiac contractility after exposure to a long-term HFD ([6]; ex vivo perfusion studies [33]): lost
